Measured values as given in patent publication US9005937B2, “Dual cofactor specific ribitol dehydrogenase and use thereof” (Konkuk University Industrial Cooperation Corp., priority 2011, dated 2015).
Like-named read-outs stand apart in the source and are kept apart here.

Legend:
[1] = target: T1, Zymomonas mobilis ribitol dehydrogenase, wild-type, SEQ ID NO: 4 (Zymomonas mobilis, UniProt Q5NQS1); assay: Dynamical (kinetic) parameters of ribitol dehydrogenase to coenzyme NAD(H)/NADP(H), wild-type; type: biochemical
T1 sequence (Q5NQS1 74-338): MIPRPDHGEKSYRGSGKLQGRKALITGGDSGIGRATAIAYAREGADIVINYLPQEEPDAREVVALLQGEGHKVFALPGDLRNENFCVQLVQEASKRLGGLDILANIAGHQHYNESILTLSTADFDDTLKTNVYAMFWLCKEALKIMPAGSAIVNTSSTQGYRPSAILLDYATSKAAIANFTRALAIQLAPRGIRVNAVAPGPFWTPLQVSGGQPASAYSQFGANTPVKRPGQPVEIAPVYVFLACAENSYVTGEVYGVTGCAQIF
Method: (§2) The optimum pH on dehydrogenation activity of the ribitol dehydrogenase was measured using 20 mM of Tris-HCl buffer. The enzyme activity was determined by monitoring the change per minute in absorbance at 340 nm while the sample was reacted in the presence of NAD(H) and ribitol.
Then, dynamical parameters were measured through a nonlinear regression analysis.

[2] = target: T2, Zymomonas mobilis ribitol dehydrogenase (SEQ ID NO: 4) variant S156A (Zymomonas mobilis, UniProt Q5NQS1, S229A); assay: Dynamical parameters to coenzyme, variant S156A; type: biochemical
T2 sequence (Q5NQS1 74-338 S229A): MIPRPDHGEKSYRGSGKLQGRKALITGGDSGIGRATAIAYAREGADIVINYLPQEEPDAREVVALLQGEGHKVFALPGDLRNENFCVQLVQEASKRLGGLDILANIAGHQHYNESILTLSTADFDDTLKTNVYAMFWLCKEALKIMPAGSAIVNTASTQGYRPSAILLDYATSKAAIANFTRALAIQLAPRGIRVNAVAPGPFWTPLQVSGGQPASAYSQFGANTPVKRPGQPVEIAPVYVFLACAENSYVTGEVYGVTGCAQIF
Description: (§1) There were no differences between the expression amount of various amino acid variants of Ser 156 and the expression amount of wide-type. The dynamical parameter of each of variants was confirmed using the above variants.

[3] = target: T3, Zymomonas mobilis ribitol dehydrogenase (SEQ ID NO: 4) variant S156G (Zymomonas mobilis, UniProt Q5NQS1, S229G); assay: Dynamical parameters to coenzyme, variant S156G; type: biochemical
T3 sequence (Q5NQS1 74-338 S229G): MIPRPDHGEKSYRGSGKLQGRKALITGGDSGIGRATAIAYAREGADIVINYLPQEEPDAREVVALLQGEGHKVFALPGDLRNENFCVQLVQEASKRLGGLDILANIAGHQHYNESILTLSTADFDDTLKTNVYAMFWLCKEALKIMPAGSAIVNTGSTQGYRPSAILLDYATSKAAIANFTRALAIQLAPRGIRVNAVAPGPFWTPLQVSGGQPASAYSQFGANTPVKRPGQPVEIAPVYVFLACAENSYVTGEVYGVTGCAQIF
Description: as §1

[4] = target: T4, Zymomonas mobilis ribitol dehydrogenase (SEQ ID NO: 4) variant S156T (Zymomonas mobilis, UniProt Q5NQS1, S229T); assay: Dynamical parameters to coenzyme, variant S156T; type: biochemical
T4 sequence (Q5NQS1 74-338 S229T): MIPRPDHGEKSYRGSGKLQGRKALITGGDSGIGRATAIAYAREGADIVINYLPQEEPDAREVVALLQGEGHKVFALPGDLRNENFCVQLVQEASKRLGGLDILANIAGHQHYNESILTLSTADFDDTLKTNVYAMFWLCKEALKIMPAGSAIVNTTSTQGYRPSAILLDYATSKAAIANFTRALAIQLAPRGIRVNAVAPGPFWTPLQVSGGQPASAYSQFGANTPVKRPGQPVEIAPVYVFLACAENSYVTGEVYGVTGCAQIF
Description: as §1

[5] = target: T5, Zymomonas mobilis ribitol dehydrogenase (SEQ ID NO: 4) variant S156C (Zymomonas mobilis, UniProt Q5NQS1, S229C); assay: Dynamical parameters to coenzyme, variant S156C; type: biochemical
T5 sequence (Q5NQS1 74-338 S229C): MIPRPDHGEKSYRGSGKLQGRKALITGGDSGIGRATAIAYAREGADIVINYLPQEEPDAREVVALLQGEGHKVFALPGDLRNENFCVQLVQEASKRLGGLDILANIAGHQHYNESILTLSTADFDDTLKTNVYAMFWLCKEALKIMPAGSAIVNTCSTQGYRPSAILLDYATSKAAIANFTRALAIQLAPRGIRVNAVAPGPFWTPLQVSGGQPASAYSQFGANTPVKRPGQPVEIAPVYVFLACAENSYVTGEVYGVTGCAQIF
Description: as §1

[6] = target: T6, Zymomonas mobilis ribitol dehydrogenase (SEQ ID NO: 4) variant S156Y (Zymomonas mobilis, UniProt Q5NQS1, S229Y); assay: Dynamical parameters to coenzyme, variant S156Y; type: biochemical
T6 sequence (Q5NQS1 74-338 S229Y): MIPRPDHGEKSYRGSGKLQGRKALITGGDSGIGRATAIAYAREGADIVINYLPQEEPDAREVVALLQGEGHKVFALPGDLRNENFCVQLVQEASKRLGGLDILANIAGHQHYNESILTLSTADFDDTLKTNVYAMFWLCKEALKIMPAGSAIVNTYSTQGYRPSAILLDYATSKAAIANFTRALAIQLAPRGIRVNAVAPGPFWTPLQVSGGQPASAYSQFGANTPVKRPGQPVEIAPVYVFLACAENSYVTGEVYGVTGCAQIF
Description: as §1

[7] = target: T7, Zymomonas mobilis ribitol dehydrogenase (SEQ ID NO: 4) variant S156W (Zymomonas mobilis, UniProt Q5NQS1, S229W); assay: Dynamical parameters to coenzyme, variant S156W; type: biochemical
T7 sequence (Q5NQS1 74-338 S229W): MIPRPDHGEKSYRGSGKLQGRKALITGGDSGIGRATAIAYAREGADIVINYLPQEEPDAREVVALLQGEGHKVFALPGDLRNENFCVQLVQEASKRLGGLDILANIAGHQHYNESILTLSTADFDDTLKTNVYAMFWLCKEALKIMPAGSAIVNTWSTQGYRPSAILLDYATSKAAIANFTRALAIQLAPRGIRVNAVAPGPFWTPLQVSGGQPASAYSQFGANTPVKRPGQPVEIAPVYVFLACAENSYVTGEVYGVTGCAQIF
Description: as §1

[8] = target: T8, Zymomonas mobilis ribitol dehydrogenase (SEQ ID NO: 4) variant S156D, SEQ ID NO: 5 (Zymomonas mobilis, UniProt Q5NQS1, N321D/S229D); assay: Dynamical parameters to coenzyme, variant S156D; type: biochemical
T8 sequence (Q5NQS1 74-338 S229D/N321D): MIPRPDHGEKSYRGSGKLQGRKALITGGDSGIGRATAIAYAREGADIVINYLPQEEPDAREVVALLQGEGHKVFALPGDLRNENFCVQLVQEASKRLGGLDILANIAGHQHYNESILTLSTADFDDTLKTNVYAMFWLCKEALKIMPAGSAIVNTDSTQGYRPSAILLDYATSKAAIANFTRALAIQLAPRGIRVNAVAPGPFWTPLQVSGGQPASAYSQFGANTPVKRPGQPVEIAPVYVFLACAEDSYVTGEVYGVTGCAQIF
Description: In addition, the present invention provides a ribitol dehydrogenase mutant selected from the group consisting of a) a mutant, in which serine, an amino acid at position 156 of the ribitol dehydrogenase having an amino acid sequence as set forth in SEQ ID NO: 4 is substituted with aspartic acid; and b) a mutant, in which tyrosine, an amino acid at position 51 of the ribitol dehydrogenase having an amino acid sequence as set forth in SEQ ID NO: 4 is substituted with aspartic acid and serine, an amino acid at position 156 is substituted with alanine.
The mutants have preferably amino acid sequences as set forth in SEQ ID NOS: 5 and 6, respectively, but the present invention is not limited thereto.
as §1

[9] = target: T9, Zymomonas mobilis ribitol dehydrogenase (SEQ ID NO: 4) variant S156E (Zymomonas mobilis, UniProt Q5NQS1, S229E); assay: Dynamical parameters to coenzyme, variant S156E; type: biochemical
T9 sequence (Q5NQS1 74-338 S229E): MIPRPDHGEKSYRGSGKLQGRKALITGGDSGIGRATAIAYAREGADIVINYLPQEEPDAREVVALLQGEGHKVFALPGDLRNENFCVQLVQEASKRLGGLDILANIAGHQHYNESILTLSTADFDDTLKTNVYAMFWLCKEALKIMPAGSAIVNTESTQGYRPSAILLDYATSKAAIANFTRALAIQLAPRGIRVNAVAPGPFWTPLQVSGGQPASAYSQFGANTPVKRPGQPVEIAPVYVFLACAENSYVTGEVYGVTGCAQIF
Description: as §1

[10] = Optimum pH on dehydrogenation activity of the ribitol dehydrogenase; type: biochemical; settings: 20 mM Tris-HCl buffer; NAD(H) and ribitol; absorbance at 340 nm
Description: Physicochemical properties of the ribitol dehydrogenase isolated in Example 4 were investigated using ribitol as a substrate.

[11] = Production of L-ribulose from ribitol with cell bodies of recombinant strains expressing the variants; type: cell-based, E. coli; settings: whole cells; 20 mM Tris-HCl buffer pH 9.5; 25° C.; 6 hours; HPLC
Method: The following experiments were performed in order to produce L-ribulose using a ribitol dehydrogenase variant having double coenzyme specificity. The variants prepared by using the method of Example 5-3 were expressed using the method of Example 2; the cell bodies were only collected by centrifuging (8000×g for 10 minutes) the recombinant strain culture solution; and then the cell bodies were washed with distilled water twice. The final Cell OD was measured and the same amount of cells was used for a production experiment. The ribitol and each of recombinant enzyme variants were subjected to an enzyme reaction in 20 mM of Tris-HCl buffer (pH 9.5) at a temperature of 25° C. for 6 hours.

[12] = coenzyme NAD(H)
Method: as §2

[13] = coenzyme NADP(H)
Method: as §2

[14] = substrate: NC(=O)c1ccc[n+]([C@@H]2O[C@H](COP(=O)(O)OP(=O)(O)OC[C@H]3O[C@@H](n4cnc5c(N)ncnc54)[C@H](OP(=O)(O)O)[C@@H]3O)[C@@H](O)[C@H]2O)c1; assay: purified protein, by the assay type; settings: ribitol, wild-type, pH 9.0
[15] = read-out: Km, NAD, NAD 0.01 to 3 mM
[16] = other: NADP(H) 0.1 to 2 mM, 20 mM Tris-HCl, 340 nm

## NC(=O)c1ccc[n+]([C@@H]2O[C@H](COP(=O)(O)OP(=O)(O)OC[C@H]3O[C@@H](n4cnc5c(N)ncnc54)[C@H](O)[C@@H]3O)[C@@H](O)[C@H]2O)c1 [NAD^+, nicotinamide adenine dinucleotide]
[1]; NAD 0.01 to 3 mM
  kcat (NAD^+): 4.83 ± 0.51 s⁻¹
[1]; NAD(H) 0.1 to 2 mM, 20 mM Tris-HCl, 340 nm
  kcat (NAD(H)): about 4.84 s^−1
[1]; [15]
  Km: 180 ± 20 µM
[1]; read-out: Km, NAD, NAD(H) 0.1 to 2 mM, 20 mM Tris-HCl, 340 nm
  Km: ~180 µM
[2]; NAD 0.01 to 3 mM
  kcat (NAD^+): 1.93 ± 0.16 s⁻¹
[2]; [15]
  Km: 190 ± 20 µM
[3]; NAD 0.01 to 3 mM
  kcat (NAD^+): 1.04 ± 0.02 s⁻¹
[3]; [15]
  Km: 140 ± 10 µM
[4]; NAD 0.01 to 3 mM
  kcat (NAD^+): 2.85 ± 0.10 s⁻¹
[4]; [15]
  Km: 210 ± 60 µM
[5]; NAD 0.01 to 3 mM
  kcat (NAD^+): 2.00 ± 0.09 s⁻¹
[5]; [15]
  Km: 100 ± 20 µM
[6]; NAD 0.01 to 3 mM
  kcat (NAD^+): 1.60 ± 0.13 s⁻¹
[6]; [15]
  Km: 150 ± 10 µM
[7]; NAD 0.01 to 3 mM
  kcat (NAD^+): 2.62 ± 0.11 s⁻¹
[7]; [15]
  Km: 160 ± 20 µM
[8]; NAD 0.01 to 3 mM
  kcat (NAD^+): 1.79 ± 0.01 s⁻¹
[8]; [15]
  Km: 20 ± 2 µM
[9]; NAD 0.01 to 3 mM
  kcat (NAD^+): 2.06 ± 0.07 s⁻¹
[9]; [15]
  Km: 50 ± 3 µM

B1: Zymomonas mobilis ribitol dehydrogenase, wild-type, SEQ ID NO: 4 (Zymomonas mobilis subsp. mobilis ZM4 = ATCC 31821) (protein)
chain: MIPRPDHGEKSYRGSGKLQGRKALITGGDSGIGRATAIAYAREGADIVINYLPQEEPDAREVVALLQGEGHKVFALPGDLRNENFCVQLVQEASKRLGGLDILANIAGHQHYNESILTLSTADFDDTLKTNVYAMFWLCKEALKIMPAGSAIVNTSSTQGYRPSAILLDYATSKAAIANFTRALAIQLAPRGIRVNAVAPGPFWTPLQVSGGQPASAYSQFGANTPVKRPGQPVEIAPVYVFLACAENSYVTGEVYGVTGCAQIF
[10]
  optimum pH: 9.5
[11]
  L-ribulose produced, concentration: 0.80 g/L
[12]
  Relative activity (%), NAD(H): 100%
[13]
  Relative activity (%), NADP(H): 42.9%
[14]; other: NADP 0.01 to 3 mM
  Km: 260 ± 20 µM
  kcat: 2.79 s⁻¹
  kcat/Km: 10800 M⁻¹ s⁻¹
[14]; [16]
  Km: 260 µM
  kcat: 2.79 s⁻¹
